One series has as its system 4T1. Description: Cell division analysis, CFSE staining, flow cytometry. Particulars: 4T1, IC50 for 72 h. On the set-up: key: ↑: induction; ↓: inhibition; ↔: no effect. It counts as cell-based, mouse. On the procedure:
The cells were stained with CFSE (1 µM) in PBS containing 0.1% (v/v) FCS for 10 min. Afterwards, cells were washed with PBS, and then seeded with growth medium in 6-well plates. The plates were incubated for 24 h under standard culture conditions. […] Subsequently, the cells were detached using 0.5 mL of 0.05% (v/v) Trypsin–EDTA for 3 min at 37 °C. Then trypsin was deactivated by the addition of FCS-containing growth medium. The cell suspensions were collected, centrifuged for 3 min at 800 rpm, and the cell pellets were resuspended in fresh PBS. Finally, the samples were analyzed by using flow cytometry.

For a further series, the system named is MCF-10A. Nature of the series: CV cell viability assay on healthy breast cell line. It counts as cell-based. The following applies: Homo sapiens, 72 h. On the procedure:
The cell lines were cultured in standard growth medium consisting of RPMI1640 medium supplemented with 10% (v/v) FCS, 1% (v/v) penicillin/streptomycin and 1% (v/v) glutamine[25]–[29]. Two additional cell lines were included in the study representing non-tumorigenic (“healthy”) breast cells, namely 184B5 and MCF10A. These cell lines were cultured using an Endopan 3 medium kit in accordance with the manufacturer’s instruction. For passaging and seeding, cells were treated as previously described. In brief, seeding was done in low density with 6 × 10^3 cells/100 µL in 96-well plates, and with 1.5 × 10^5 cells/1 mL in 6-well plates. […]
For initial testing of the cytotoxic effect of the available glycophymine compounds (Table S2), cells were treated with compound in three concentrations: 1, 10 and 50 µM. […] Subsequently, the cell viability was determined by using the crystal violet (CV) assay. […]
For CV assays, after 72 h treatment, the treatment medium was discarded from the 96-well plates, and the cells were washed using 50 µL of PBS. […] Finally, the absorbance was measured at 570 nm by using a SpectraMax M5 plate reader (Molecular Devices, California, USA) and at 670 nm as background wavelength. […] Based on that, IC50 values and standard deviations were calculated for each replicate individually.

In series [1] the test system is 4T1 mouse breast cancer cells (TNBC). Nature of the series: Syngeneic orthotopic 4T1 breast cancer model in BALB/c mice, tumor volume. It counts as in vivo. The source says: Compound 19 was selected to be tested against a syngeneic breast cancer model induced by orthotopic inoculation of 4T1 mouse breast cancer cells (TNBC) into BALB/c mice. In that exploratory study, we aimed to investigate for the first time a proposed anticancer efficacy of that compound. For that purpose, three groups were included in the study, each comprising eight animals. The resulting total number of 24 animals aimed to avoid under- or overpowering of the study. The animals were kept under standard laboratory conditions with an ad libitum regime for food and water intake. 5 × 10^4 of 4T1 cells in 50 µL PBS were inoculated in the fourth right mammary fat pad of female mice at day 0. Anesthesia was induced using a combination of ketamine and xylazine at doses of 60 mg/kg and 7.5 mg/kg, respectively.
(§1) On day 6, the mice were assigned to the study groups using a stratified randomization approach, ensuring that the mean tumor volumes were as similar as possible across all groups. The control group was treated with 400 µL of vehicle solution, the low dose compound 19 group with 5 mg/kg in 400 µL of vehicle, and the high dose group with […] in 400 µL of vehicle. The vehicle was 4% (v/v) DMSO in PBS, and the administration route was intraperitoneal (i.p.). The animals were treated daily on days 6–10 (starting from the day when tumors became palpable), 13–17 and day 20. Animals were visually examined daily, and urine samples were collected on the first and last day of treatment and analyzed by Multistix urine test stripes (Siemens Healthineers, Erlangen, Germany). On day 21 of the experiment, the mice were sacrificed using cervical dislocation. Following the sacrifice, the tumor diameters were measured using a caliper. The tumor volume (V) was then calculated using the formula V = L*W^2*0.52[36], where L represents the longest diameter and W the shortest diameter of the tumor.

Series [2] in a line: Monitoring of systemic toxicity in the 4T1 in vivo study (body mass, behavior, fur, food intake). On the set-up: species or system BALB/c mice. Particulars: 5 and 20 mg/kg i.p. As to the method:
as §1

The next series relates to HCC1937. Description: Autophagy induction, acridine orange staining, flow cytometry. It counts as cell-based, human. On the set-up: key: ↑: induction; ↓: inhibition; ↔: no effect. The following applies: HCC1937, IC50 for 72 h. On the procedure: (§2) Cells were seeded in 6-well plates and incubated for 24 h under standard culture conditions. […] For the analyses of autophagy induction, the cell suspension was centrifuged for 3 min at 800 rpm, and the cell pellet was stained with 1 mL of AO working solution (1 µg/mL of AO in growth medium). Cells were incubated for 15 min under standard culture conditions. The cell suspension was centrifuged for 3 min at 800 rpm, and the cell pellet was washed with 1 mL of fresh PBS. Finally, all samples were analyzed by using flow cytometry (FACSAria III, BD Biosciences, New Jersey, USA).
A general note: A flow cytometer gives signals particle by particle.

For the next series, the system named is BT-474. The description is as above. On the set-up: key: ↑: induction; ↓: inhibition; ↔: no effect. Format: cell-based, human. The following applies: BT-474, IC50 for 72 h. As to the method:
as §2

For the next series, the system named is MDA-MB-468. The series is described as above. Particulars: MDA-MB-468, IC50 for 72 h. It counts as cell-based, human. Further details: key: ↑: induction; ↓: inhibition; ↔: no effect. On the procedure: as §2
The test system of a further series is MCF-7. The series is described as above. The following applies: MCF-7, IC50 for 72 h. Further details: key: ↑: induction; ↓: inhibition; ↔: no effect. It counts as cell-based, human. On the procedure:
as §2

Broadly, the IC50 is the concentration needed to halve the response being measured.

As for `O=c1[nH]c(Nc2ccc([N+](=O)[O-])cc2)nc2ccccc12` [Compound 19, 4′-nitro-9-aza-glycophymine], the Proliferation result in the series with 4T1 is “↓”. In the series with MCF-10A, the IC50 is about 4 µM. For the same compound, in series [1] (5 mg/kg i.p., day 21), the “reduction of the tumor volume compared to the control group” value worked out at 30%. The median tumor volume in series [1] (5 mg/kg i.p., days 6–10, 13–17 and 20, measured day 21, control group 205 mm^3) is 143 mm^3. In addition, in series [1] (20 mg/kg i.p., compared with 5 mg/kg), the “tumor suppression at the higher dose” value was “no further improvement of the tumor suppression was observed”. Moreover, in series [2], the “acute systemic toxicity (body mass, behavioral changes, fur color and loss, food intake)” value was “absence of acute systemic toxicity”. Also, the Autophagy entry in the series with HCC1937, in the series with BT-474, with MDA-MB-468 and with MCF-7 was “↔” each time.

These data come from paper PMC11568214, “The impact of 9-azaglycophymine and phenylguanidine derivatives on the proliferation of various breast cancer cell lines in vitro and in vivo” (Scientific Reports, 2024).
